# According to patent publication US9827219B2, “Compositions and methods for lowering levels of high-sensitivity C-reactive protein (HS-CRP) in a subject” (priority 2012, dated 2017):
# Legend:
# Assay type in all cases: in vivo, human
# IL-6 = experiment: ANCHOR study, IL-6; details: ANCHOR ITT, week 12
# Protocol: A multi-center, placebo-controlled, randomized, double-blind, 12-week study was performed to evaluate the efficacy and safety of >96% E-EPA in patients with fasting triglyceride levels ≧200 mg/dl and <500 mg/dl despite statin therapy (the mean of two qualifying entry values needed to be ≧185 mg/dl and at least one of the values needs to be ≧200 mg/dl). The primary objective of the study was to determine the efficacy of >96% E-EPA 2 g daily and 4 g daily, compared to placebo, in lowering fasting TG levels in patients with high risk for cardiovascular disease and with fasting TG levels ≧200 mg/dL and <500 mg/dL, despite treatment to LDL-C goal on statin therapy.
# The population for this study was men and women >18 years of age with a body mass index ≦45 kg/m^2 with fasting TG levels greater than or equal to 200 mg/dl and less than 500 mg/dl and on a stable does of statin therapy (with or without ezetimibe). The statin must have been atorvostatin, rosuvastatin or simvastatin. The dose of statin must have been stable for ≧4 weeks prior to the LDL-C/TG baseline qualifying measurement for randomization. The statin dose was optimal such that the patients are at their LDL-C goal at the LDL-C/TG baseline qualifying measurements. The same statin at the same dose was continued until the study ended.
# Approximately 648 patients were randomized at approximately 80 centers in the U.S. The study was a 18- to 20-week, Phase 3, multi-center study consisting of 2 study periods: (1) A 6- to 8-week screening period that included a diet and lifestyle stabilization, a non-statin lipid-altering treatment washout, and an LDL-C and TG qualifying period and (2) A 12-week, double-blind, randomized, placebo-controlled treatment period.
# After confirmation of qualifying fasting LDL-C and TG values, eligible patients entered a 12-week, randomized, double-blind treatment period. At Visit 4 (Week 0), patients were randomly assigned to 1 of the following treatment groups: • >96% E-EPA 2 g daily, • >96% E-EPA 4 g daily, or • Placebo.
# Approximately 216 patients per treatment group were randomized in this study. Stratification was by type of statin (atorvastatin, rosuvastatin or simvastatin), the presence of diabetes, and gender. The lower-efficacy statin regimen included administration of 5-10 mg of simvastatin per day; the medium-efficacy statin regimens included administration of 5-10 mg rosuvastatin per day, 10-20 mg of atorvastatin per day, 20-40 mg of simvastatin per day, or 10-20 mg of simvastatin and 5-10 mg of ezetimibe per day; and the higher-efficacy statin regimens included administration of 20-40 mg of rosuvastatin per day, 40-80 mg of atorvastatin per day, 80 mg of simvastatin per day, or 40-80 mg of simvastatin and 5-10 mg of ezetimibe per day. […]
# [1] = Safety and tolerability (adverse events), AAMI pilot study (Example 1); details: for TEAE Probably Related to the study drug: one subject
# Protocol: All randomized subjects that received at least 1 dose of study medication were included in the Safety Population.
# Safety evaluations were based on the safety population. Safety and tolerability were assessed in terms of AEs, vital signs, 12-lead ECG, clinical laboratory data, medical history, and study drug compliance. Safety and tolerability data were presented by treatment group.
# [2] = system: TG, LDL-C, non-HDL-C, VLDL-C, Lp-PLA2, Apo B, TC, HDL-C, VLDL-TG, hs-CRP, oxLDL, RLP-C; experiment: Lipid and inflammatory parameters in statin-treated patients with diabetes mellitus-2, all endpoints (Example 2); details: for Each evaluated endpoint (TG, LDL-C, non-HDL-C, VLDL-C, Lp-PLA2, Apo B, TC, HDL-C, VLDL-TG, hs-CRP, oxLDL, RLP-C), adjusted for placebo: twelve weeks, diabetes mellitus-2, FIG. 1
# Excerpt: Parameters (a)-(y) can be measured in accordance with any clinically acceptable methodology. For example, triglycerides, total cholesterol, HDL-C and fasting blood sugar can be sample from serum and analyzed using standard photometry techniques. VLDL-TG, LDL-C and VLDL-C can be calculated or determined using serum lipoprotein fractionation by preparative ultracentrifugation and subsequent quantitative analysis by refractometry or by analytic ultracentrifugal methodology. Apo A1, Apo B and hsCRP can be determined from serum using standard nephelometry techniques. Lipoprotein (a) can be determined from serum using standard turbidimetric immunoassay techniques. LDL particle number and particle size can be determined using nuclear magnetic resonance (NMR) spectrometry. Remnants lipoproteins and LDL-phospholipase A2 can be determined from EDTA plasma or serum and serum, respectively, using enzymatic immunoseparation techniques. Oxidized LDL, intercellular adhesion molecule-1 and interleukin-2 levels can be determined from serum using standard enzyme immunoassay techniques. These techniques are described in detail in standard textbooks, for example Tietz Fundamentals of Clinical Chemistry, 6th Ed. (Burtis, Ashwood and Borter Eds.), WB Saunders Company.
# The effect of >96% E-EPA on lipid and inflammatory parameters was evaluated in patients with fasting triglyceride levels ≧150 mg/dl and <499 mg/dl on concomitant statin therapy. Patients with diabetes mellitus-2 were randomized and treated with either 2 g/day >96% E-EPA, 4 g/day >96%, or placebo for twelve weeks. At the end of the treatment period, several diabetes efficacy endpoints were evaluated including, TG, LDL-C, non-HDL-C, VLDL-C, Lp-PLA2, Apo B, TC, HDL-C, VLDL-TG, hs-CRP, oxLDL, and RLP-C.
structure (smiles),measurement,setting,value
"CC/C=C\C/C=C\C/C=C\C/C=C\C/C=C\CCCC(=O)OCC [AMR101, all-cis eicosa-5,8,11,14,17-pentaenoic acid ethyl ester]",IL-6 change from baseline (median),IL-6; 2 g/day,6.9%
same,IL-6 end-of-treatment value (median),IL-6; 2 g/day,2.7 pg/mL
same,IL-6 change from baseline (median),IL-6; 4 g/day,3.1%
same,IL-6 end-of-treatment value (median),IL-6; 4 g/day,2.6 pg/mL
same,Subjects with nausea Possibly Related to the study drug,[1]; 1 g cohort,two
same,TEAE Probably Related to the study drug,[1]; 1 g,nausea
same,Subjects with nausea Possibly Related to the study drug,[1]; 2 g cohort,one
same,SAE reported,[1]; 2 g treatment group,One
same,Subjects discontinued due to TEAEs,[1]; 2 g treatment group,2 subjects
same,Subjects with nausea Possibly Related to the study drug,[1]; 4 g cohort,two
same,TEAE Probably Related to the study drug,[1]; 4 g,diarrhea
same,Deaths during the study,[1]; all groups,no deaths
same,TEAEs Definitely Related to the study drug,[1]; all groups,No TEAEs were Definitely Related
same,Treatment emergent AEs (TEAEs) reported,"[1]; ethyl-EPA treatment groups (1, 2, 4 g), 6 weeks, placebo groups 34 events",105 events
same,Relatedness of the SAE (worsening epigastric chest pain),[1]; one subject receiving 2 g,unrelated to the study drug
same,Severity and relatedness of most TEAEs,[1]; whole study,mild in severity and unrelated to study drug
same,"Each evaluated endpoint (TG, LDL-C, non-HDL-C, VLDL-C, Lp-PLA2, Apo B, TC, HDL-C, VLDL-TG, hs-CRP, oxLDL, RLP-C), adjusted for placebo",[2]; 2 g/day,showed a decrease
same,"Each evaluated endpoint (TG, LDL-C, non-HDL-C, VLDL-C, Lp-PLA2, Apo B, TC, HDL-C, VLDL-TG, hs-CRP, oxLDL, RLP-C), adjusted for placebo",[2]; 4 g/day,showed a decrease
same,"Placebo-adjusted effects on non-HDL-C, VLDL-C, Apo B, TC, VLDL-TG, hsCRP and oxLDL, less-controlled versus well-controlled subjects","[2]; 4 g/day, Table 7 and FIG. 3",more pronounced effects were observed in less-controlled diabetics
